Measured values taken from article PMC10447463, “Data-mining unveils structure–property–activity correlation of viral infectivity enhancing self-assembling peptides” (Nature Communications, 2023).
Where two headings read alike, the source gives them in different places.

What was measured:
[1] = format: physicochemical; settings: STD prep
[2] = system: HIV-1 infection of TZM-bl cells; assay: HIV-1 infectivity enhancement assay, β-galactosidase luminescence; format: cell-based; settings: for Log10 Inf. rel. to EF-C: log10 of HIV-1 infection of TZM-bl cells relative to EF-C, Fig S15 source data, asymmetric std dev errors
[3] = format: physicochemical
Summary of the method: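 Preformed peptide fibrils (1 mg/mL) mixed with 50 µM ThT in PBS, 15 min at RT, fluorescence ex 440/em 488 nm versus PBS blank, triplicates. Zeta potential: peptides at 1 mg/mL in PBS pH 7.4, aged 1 d at RT, diluted in 1 mM KCl, Smoluchowski from electrophoretic mobility.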

[4] = Feb2021, Log10 of infectivity relative to EF-C
[5] = Feb2021, figures match the 1.3 µM column
[6] = Feb2021, infectivity relative to virus only
[7] = Feb2021, n-fold enhancement relative to EF-C
[8] = Feb2021, n-fold infectivity relative to EF-C
[9] = infectivity class (low / medium / high) of each library peptide, main list in c1-c6, same classes repeated in sub-lists of sequences containing the hydrophobicity/charge patterns P+,H0,P+,H0,P0,H0,P0, P+,H0,P0,H0,P0,H0,P0, P+,H0,P0,H0
[10] = ThT fluorescence relative to blank (42.1851851851852 a.u.)
[11] = ThT fluorescence relative to blank, blank = 42.1851851851852
[12] = Feb2021, 1.3 µM value relative to virus only (0 µM)
[13] = Feb2021, unrounded values of the 1.3 µM column
[14] = Feb2021 run, infectivity n-fold relative to virus alone
[15] = Feb2021 run, log10 of infectivity relative to EF-C
[16] = Feb2021 run, n-fold infectivity relative to EF-C
[17] = infectivity class (low / medium / high) of the peptide in the sequence-pattern analysis, Fig. S22-A4, class limits not given
[18] = relative to blank 42.1851851851852 a.u.

| Sequence | TEM: 1= fibrils, 0= aggregates (micelle), 0.5 = aggregates and fibrils, -1 = nothing obersved, STD prep [1] | Log10 of Rel to EFC (Feb2021) [2, 4] | Rel-to EFC (Feb-2021) [2, 7] | Rel-to EFC (Feb-2021) [2, 8] | infectivity [2, 9] | Log10 Inf. rel. to EF-C [2] | Tht rel to blank (42.1851851851852) [3, 10] | Tht category (> 1.5 to blank = +) ([3]; category 1/0) | n-fold to virus (Feb2021) [2, 12] | Absolute Infectivity / RLU /s (Feb2021) [2, 13] | n-fold to virus (Feb2021) [2, 14] | Log10 of Rel to EFC (Feb2021) [2, 15] | Rel-to EFC (Feb-2021) [2, 16] | Tht rel to blank (42.1851851851852) [3, 18] | further results |
| --- | --- | --- | --- | --- | --- | --- | --- | --- | --- | --- | --- | --- | --- | --- | --- |
| KFKQFFNMWQ [JG5] | 0 | -1.049 | 0.08925 | 0.08925 | low | -1.0494 | 1.589 | 0 (ThT-inactive (N-Fold <2)) | – | – | – | – | – | – | Absolute Infectivity / RLU /s (Feb2021) [2, 5]: 1000 RLU /s; n-fold to virus (Feb2021) [2, 6]: 3.75; Tht rel to blank (42.1851851851852) [3, 11]: 1.589 |
| CKIKIQINMW [TM86] | 1 | 0.1122 | 1.295 | 1.295 | high | 0.1122 | 1.353 | 0 (ThT-inactive (N-Fold <2)) | 54.4 | 7253 RLU /s | 54.4 | 0.1122 | 1.295 | 1.353 | infectivity [2, 17]: high |
| QCKIKQIINM [CK5] | 1 | -0.4555 | 0.3503 | 0.3503 | medium | -0.4555 | 23.32 | 1 (ThT. Cat is 1, if Rel. ThT >2) | – | – | 14.72 | -0.4555 | 0.3503 | 23.32 | Absolute Infectivity / RLU /s (Feb2021) [2, 5]: 11186.66667 RLU /s; n-fold to virus (Feb2021) [2, 6]: 14.72; Tht rel to blank (42.1851851851852) [3, 11]: 23.32 |
| QCKFKFQFNM [CK8] | 1 | -0.2906 | 0.5121 | 0.5121 | medium | -0.2906 | 2.317 | 1 (ThT. Cat is 1, if Rel. ThT >2) | 21.52 | 16353.33333 RLU /s | 21.52 | -0.2906 | 0.5121 | 2.317 | – |
| QCKAKAQANMWQ [CK22] | 0.5 | -1.144 | 0.07183 | 0.07183 | low | -1.144 | 1.496 | 0 (ThT-inactive (N-Fold <2)) | 3.018 | 2767 RLU /s | 3.018 | -1.144 | 0.07183 | 1.496 | – |
| QCKIKIQINM [CK2] | 1 | -0.4024 | 0.3959 | 0.3959 | medium | -0.4024 | 2.548 | 1 (ThT. Cat is 1, if Rel. ThT >2) | 16.64 | 15250 RLU /s | 16.64 | -0.4024 | 0.3959 | 2.548 | – |
| CKAKAQANM [BL9] | 0.5 | -1.504 | 0.03133 | 0.03133 | low | -1.504 | 1.249 | 0 (ThT-inactive (N-Fold <2)) | 1.316 | 430 RLU /s | 1.316 | -1.504 | 0.03133 | 1.249 | – |
| MKIKIQINMWQ [TM52] | 1 | -0.378 | 0.4188 | 0.4188 | medium | -0.378 | 4.061 | 1 (ThT. Cat is 1, if Rel. ThT >2) | 17.6 | 12786.66667 RLU /s | 17.6 | -0.378 | 0.4188 | 4.061 | – |
| MKIKIQINM [TM41] | 1 | – | – | 0.2732 | medium | -0.5635 | – | 0 (ThT-inactive (N-Fold <2)) | 11.48 | 15000 RLU /s | – | – | – | 1.327 | Log10 of Rel to EFC (Feb2021) ([2]; Feb2021, log10 of infectivity relative to EF-C): -0.5635 |
| KIKIKIQI [TG13] | 1 | -1.014 | 0.09675 | 0.09675 | low | -1.014 | 2.036 | 1 (ThT. Cat is 1, if Rel. ThT >2) | – | – | – | – | – | – | Absolute Infectivity / RLU /s (Feb2021) [2, 5]: 2073 RLU /s; n-fold to virus (Feb2021) [2, 6]: 4.065; infectivity [2, 17]: low; Tht rel to blank (42.1851851851852) [3, 11]: 2.036 |
| CKAKAQANMWQ [BL8] | 0.5 | -1.359 | 0.04371 | 0.04371 | low | -1.359 | 1.86 | 0 (ThT-inactive (N-Fold <2)) | 1.837 | 600 RLU /s | 1.837 | -1.359 | 0.04371 | 1.86 | Rel-to EFC ([2]; Fig S8 panels B, D, infectivity enhancement relative to EF-C): 0.04371; n-fold to virus ([2]; Fig S8 panels B, D, infectivity n-fold relative to virus alone): 1.837 |
| RGDKIKIQI [MG14] | 1 | -1.805 | 0.01566 | – | low | -1.805 | 5.578 | 1 (ThT. Cat is 1, if Rel. ThT >2) | – | – | 0.6579 | -1.805 | 0.01566 | 5.578 | Tht category (> 1.5 to blank = +) ([3]; FigS26): 1 (Tht category (> 1.5 to blank = +)) |
| KIKIKIQINMWQ [VH9] | – | -0.1048 | 0.7855 | – | high | -0.1048 | 1.586 | – | – | – | – | – | – | – | infectivity [2, 17]: high |
